Data: patent US11897862B2 (Gilead Sciences, Inc., priority 2022, dated 2024)
Where two headings read alike, the source gives them in different places.

Legend:
Assay type in all cases: cell-based
IKZF2 [1] = biological target: T1, IKZF2 (Homo sapiens, UniProt Q96SW2+Q9UKS7); assay: Human whole blood IKZF2 degradation (flow cytometry, CD4/CD25/Foxp3+ Treg cells); design: endogenous in cells; conditions: 24 hrs incubation, IKZF2 MFI in CD4/CD25/Foxp3+ Treg cells, flow cytometry; for DC50: read-out: IKZF2 EC50
Method in brief: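 Fresh healthy-donor human whole blood stimulated with CD3/CD28 activator and serially diluted compound for 24 hrs at 37° C. IKZF2 MFI in CD4/CD25/Foxp3+ Tregs (IKZF1 MFI in CD4+ T cells) measured by flow cytometry after RBC lysis, fixation, permeabilization. EC50 and Dmax versus DMSO wells.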
Target sequence in this assay (Q9UKS7 whole entry): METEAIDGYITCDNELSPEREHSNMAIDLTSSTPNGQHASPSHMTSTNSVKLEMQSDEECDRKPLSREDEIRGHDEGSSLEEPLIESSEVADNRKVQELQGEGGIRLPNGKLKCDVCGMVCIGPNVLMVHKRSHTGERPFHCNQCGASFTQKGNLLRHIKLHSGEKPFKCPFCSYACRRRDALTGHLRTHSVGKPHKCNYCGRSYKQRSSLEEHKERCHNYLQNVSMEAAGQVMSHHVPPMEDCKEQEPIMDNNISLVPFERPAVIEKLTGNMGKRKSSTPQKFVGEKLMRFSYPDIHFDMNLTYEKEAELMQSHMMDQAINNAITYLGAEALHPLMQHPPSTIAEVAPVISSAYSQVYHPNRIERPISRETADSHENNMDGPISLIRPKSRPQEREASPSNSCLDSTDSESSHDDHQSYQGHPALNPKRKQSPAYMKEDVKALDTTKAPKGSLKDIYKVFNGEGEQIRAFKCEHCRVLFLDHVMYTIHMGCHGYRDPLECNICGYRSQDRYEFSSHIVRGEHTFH
Target sequence in this assay (Q96SW2 whole entry): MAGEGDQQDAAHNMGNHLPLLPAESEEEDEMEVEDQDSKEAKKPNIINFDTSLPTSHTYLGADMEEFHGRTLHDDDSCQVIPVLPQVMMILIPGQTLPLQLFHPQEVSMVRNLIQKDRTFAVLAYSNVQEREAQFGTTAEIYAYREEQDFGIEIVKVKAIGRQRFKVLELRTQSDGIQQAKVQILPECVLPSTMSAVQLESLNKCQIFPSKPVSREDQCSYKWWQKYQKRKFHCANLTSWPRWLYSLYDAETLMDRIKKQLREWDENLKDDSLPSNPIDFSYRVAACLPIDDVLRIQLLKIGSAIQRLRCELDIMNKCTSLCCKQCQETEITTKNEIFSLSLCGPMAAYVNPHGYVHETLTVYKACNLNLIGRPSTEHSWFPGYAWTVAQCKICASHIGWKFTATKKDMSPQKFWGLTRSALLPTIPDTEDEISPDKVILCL
Target sequence in this assay (Q16531 whole entry partner): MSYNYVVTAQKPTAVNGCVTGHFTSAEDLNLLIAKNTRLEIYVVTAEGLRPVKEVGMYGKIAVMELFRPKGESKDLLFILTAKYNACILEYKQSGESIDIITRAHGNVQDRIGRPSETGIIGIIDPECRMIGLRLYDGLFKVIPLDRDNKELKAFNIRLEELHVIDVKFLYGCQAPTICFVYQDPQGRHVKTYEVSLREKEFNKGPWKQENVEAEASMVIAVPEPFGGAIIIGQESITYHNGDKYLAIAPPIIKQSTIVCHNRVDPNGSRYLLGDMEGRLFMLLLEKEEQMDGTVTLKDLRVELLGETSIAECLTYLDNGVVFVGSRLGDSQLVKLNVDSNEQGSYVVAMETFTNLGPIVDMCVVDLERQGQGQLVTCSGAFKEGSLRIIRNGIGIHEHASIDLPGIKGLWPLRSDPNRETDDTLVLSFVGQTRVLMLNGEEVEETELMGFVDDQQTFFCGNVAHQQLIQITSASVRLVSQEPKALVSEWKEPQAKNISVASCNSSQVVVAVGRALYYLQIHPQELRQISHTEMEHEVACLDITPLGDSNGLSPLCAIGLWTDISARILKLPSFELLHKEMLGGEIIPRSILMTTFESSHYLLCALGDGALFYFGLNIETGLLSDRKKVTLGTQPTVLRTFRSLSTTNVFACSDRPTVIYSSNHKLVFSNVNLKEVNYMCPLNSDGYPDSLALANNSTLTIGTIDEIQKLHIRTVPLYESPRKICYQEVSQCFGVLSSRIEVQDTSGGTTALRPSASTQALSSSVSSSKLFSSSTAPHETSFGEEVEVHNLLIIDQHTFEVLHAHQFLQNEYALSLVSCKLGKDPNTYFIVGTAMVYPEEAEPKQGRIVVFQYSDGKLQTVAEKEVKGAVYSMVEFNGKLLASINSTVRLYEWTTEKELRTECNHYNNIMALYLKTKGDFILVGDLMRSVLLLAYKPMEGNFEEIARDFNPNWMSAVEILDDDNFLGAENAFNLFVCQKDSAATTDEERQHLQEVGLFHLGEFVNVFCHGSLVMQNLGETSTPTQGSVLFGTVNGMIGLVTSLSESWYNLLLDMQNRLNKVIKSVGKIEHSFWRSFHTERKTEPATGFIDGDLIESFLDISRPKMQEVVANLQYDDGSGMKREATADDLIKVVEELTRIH

IKZF2 [2] = biological target: T1, IKZF2; assay: HEK293 HiBiT in vitro degradation of IKZF2; design: expressed in transfected cells; conditions: for Dmax: HEK293, HEK293 HiBiT; for DC50: 18-24 hr incubation, normalized to DMSO control, read-out: IKZF2 EC50
Method in brief: (§1)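 EC50 and Dmax come from Nano-Glo lytic luminescence after 18-24 hr compound treatment at 37° C. Reporter cells were single-copy Flp-In T-REx HEK293 pools carrying HiBiT fused to the C-terminus of IKZF1, IKZF2 or SALL4. Expression was induced overnight beforehand with […] doxycycline.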
Target sequence in this assay (Q9UKS7 1-500 isoform Q9UKS7-2): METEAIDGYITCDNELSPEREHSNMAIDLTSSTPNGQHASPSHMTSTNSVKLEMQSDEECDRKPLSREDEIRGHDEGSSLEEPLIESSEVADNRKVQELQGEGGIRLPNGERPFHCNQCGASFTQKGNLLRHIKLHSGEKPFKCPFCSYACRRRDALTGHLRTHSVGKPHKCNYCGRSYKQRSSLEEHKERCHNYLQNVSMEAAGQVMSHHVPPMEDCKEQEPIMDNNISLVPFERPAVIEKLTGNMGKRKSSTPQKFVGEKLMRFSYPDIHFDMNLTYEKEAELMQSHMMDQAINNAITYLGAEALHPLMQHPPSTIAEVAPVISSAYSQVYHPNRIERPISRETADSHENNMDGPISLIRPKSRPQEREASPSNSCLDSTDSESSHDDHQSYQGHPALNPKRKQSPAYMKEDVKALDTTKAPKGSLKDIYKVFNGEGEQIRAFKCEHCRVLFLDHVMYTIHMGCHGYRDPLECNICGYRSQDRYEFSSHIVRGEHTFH
Target sequence in this assay (Q96SW2 whole entry): as the sequence (Q96SW2 whole entry) above
Target sequence in this assay (Q16531 whole entry partner): as the sequence (Q16531 whole entry partner) above

IKZF2 [3] = biological target: T1, IKZF2; assay: HEK293 IKZF2 degradation kinetics (HiBiT, timepoints 1-24 h); design: expressed in transfected cells; conditions: for kinact: HEK293, IKZF2, timepoints 1, 2, 3, 4.5 and 24 hour, read-out: Maximum degradation rate Kinact (converted)
Description: The assay technology and principles for evaluating IKZF2 degradation kinetics in HEK293 cells was identical to the HEK293 degradation assay as described above. Additional details are briefly described below.
On Day 1, Cells were grown and induced the same as described above. On Days 2 and 3, compounds for testing were dispensed via ECHO and cells were lifted and plated into compound-spotted assay plates as above. Plates were returned to the 37° C. incubator until addition of Nano-Glo lytic reagent at 1, 2, 3, 4.5, and 24 hour timepoints. At these timepoints, plates were read on Envision reader as above.
All raw data was normalized to DMSO control (final concentration: 0.5%) wells as POC and plotted out as a function of time to generate the degradation rate constant (K) value. The maximum degradation rate (Kinact) was determined by plotting the K value as a function of concentration for each compound tested. Kinact values are shown in Table 25 and the degradation rate plots as well as timecourse of degradation are shown for select compounds in FIG. 1A, FIG. 1B, FIG. 2A and FIG. 2B.
Target sequence in this assay (Q9UKS7 1-500 isoform Q9UKS7-2): as the sequence (Q9UKS7 1-500 isoform Q9UKS7-2) above
Target sequence in this assay (Q96SW2 whole entry): as the sequence (Q96SW2 whole entry) above
Target sequence in this assay (Q16531 whole entry partner): as the sequence (Q16531 whole entry partner) above

IKZF1 = biological target: T2, IKZF1 (Homo sapiens, UniProt Q13422+Q96SW2); assay: HEK293 HiBiT in vitro degradation of IKZF1; conditions: for Dmax: HEK293, HEK293 HiBiT, maximum degradation at the highest concentration tested; for DC50: HEK293 HiBiT, 18-24 hr incubation, normalized to DMSO control, read-out: IKZF1 EC50
T2 construct: expressed in transfected cells
T2 sequence (Q13422 whole entry): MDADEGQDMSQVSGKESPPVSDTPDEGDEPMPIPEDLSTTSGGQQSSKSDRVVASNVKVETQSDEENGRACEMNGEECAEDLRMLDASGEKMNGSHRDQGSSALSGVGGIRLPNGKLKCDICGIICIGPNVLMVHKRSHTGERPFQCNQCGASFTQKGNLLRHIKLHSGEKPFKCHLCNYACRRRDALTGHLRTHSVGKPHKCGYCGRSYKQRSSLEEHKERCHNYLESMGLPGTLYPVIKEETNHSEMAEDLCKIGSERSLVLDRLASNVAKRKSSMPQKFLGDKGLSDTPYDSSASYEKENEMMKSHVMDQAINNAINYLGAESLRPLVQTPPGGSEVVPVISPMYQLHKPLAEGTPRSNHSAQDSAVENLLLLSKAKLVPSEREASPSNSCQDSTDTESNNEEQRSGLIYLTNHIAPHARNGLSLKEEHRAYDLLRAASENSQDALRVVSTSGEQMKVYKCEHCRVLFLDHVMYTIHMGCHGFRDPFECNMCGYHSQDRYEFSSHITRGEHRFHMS
T2 sequence (Q96SW2 whole entry): as the sequence (Q96SW2 whole entry) above
T2 sequence (Q16531 whole entry partner): as the sequence (Q16531 whole entry partner) above
Method in brief: as §1

SALL4 = biological target: T3, SALL4 (Homo sapiens, UniProt Q96SW2+Q9UJQ4); assay: HEK293 HiBiT in vitro degradation of SALL4; conditions: 18-24 hr incubation, normalized to DMSO control, read-out: SALL4 EC50
T3 construct: expressed in transfected cells
T3 sequence (Q9UJQ4 whole entry): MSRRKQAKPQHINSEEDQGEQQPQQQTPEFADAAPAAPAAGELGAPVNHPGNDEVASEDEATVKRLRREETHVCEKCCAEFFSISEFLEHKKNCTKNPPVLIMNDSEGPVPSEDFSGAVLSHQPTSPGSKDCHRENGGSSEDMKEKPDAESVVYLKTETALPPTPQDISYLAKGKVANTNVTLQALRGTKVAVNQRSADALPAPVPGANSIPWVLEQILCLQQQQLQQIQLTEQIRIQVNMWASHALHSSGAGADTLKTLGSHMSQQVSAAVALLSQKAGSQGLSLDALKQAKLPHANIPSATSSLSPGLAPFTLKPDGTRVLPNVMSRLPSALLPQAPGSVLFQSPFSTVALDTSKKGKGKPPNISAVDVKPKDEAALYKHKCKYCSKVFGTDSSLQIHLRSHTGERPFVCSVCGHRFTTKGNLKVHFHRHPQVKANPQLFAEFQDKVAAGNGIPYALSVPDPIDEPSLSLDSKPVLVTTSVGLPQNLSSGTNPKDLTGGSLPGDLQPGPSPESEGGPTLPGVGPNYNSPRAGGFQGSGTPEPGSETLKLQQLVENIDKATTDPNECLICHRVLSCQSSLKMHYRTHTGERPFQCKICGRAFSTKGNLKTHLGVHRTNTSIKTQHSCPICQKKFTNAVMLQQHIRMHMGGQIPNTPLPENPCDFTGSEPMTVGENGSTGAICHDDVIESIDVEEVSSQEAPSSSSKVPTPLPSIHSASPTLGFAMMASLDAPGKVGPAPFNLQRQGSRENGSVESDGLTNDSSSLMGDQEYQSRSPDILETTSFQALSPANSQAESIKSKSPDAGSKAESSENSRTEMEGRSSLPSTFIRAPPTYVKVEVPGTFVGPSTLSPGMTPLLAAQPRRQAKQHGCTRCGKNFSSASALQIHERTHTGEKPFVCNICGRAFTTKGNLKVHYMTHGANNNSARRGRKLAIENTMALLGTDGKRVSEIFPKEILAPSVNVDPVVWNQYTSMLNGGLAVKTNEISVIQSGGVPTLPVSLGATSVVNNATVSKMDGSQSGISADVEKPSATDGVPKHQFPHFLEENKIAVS
T3 sequence (Q96SW2 whole entry): as the sequence (Q96SW2 whole entry) above
T3 sequence (Q16531 whole entry partner): as the sequence (Q16531 whole entry partner) above
Description: In vitro degradation of IKZF1, IKZF2, and SALL4 was measured using HiBiT protein tagging and detection technology (Promega).
HiBit technology was used to develop the quantitative assays to measure the cellular IKZFs level by tagging an 11 amino acid HiBit peptides […] to the protein of interest. Reporter plasmids were generated by fusing a linker sequence ([…]) followed by the HiBit tag at the C-terminus of IKZF1, IKZF2, and SALL4. The fusion fragments were subsequently cloned into pcDNA5 pcDNA™5/FRT/TO plasmids (Thermo Fisher, cat #V652020) downstream of the tetracycline operator. The resulting plasmids were co-transfected with pOG44 Flp-Recombinase Expression Vector (Thermo Fisher, cat #V600520) into Flp-In™ T-REx HEK293 line (Thermo Fisher, cat #R78077) and a stable cell pool was selected by adding 100 µg/ml of Hygromycin (Thermo Fisher, cat #10687010). The reporter cell enabled Tet-On inducible reporter expression from a single copy of the integrated gene.
On Day 1, Cells were grown to ˜80% confluency in tissue culture medium (DMEM Glutamax (Gibco10569), 10% Tet free FBS (Takara 631106), and PenStrep Glutamin (Gibco 10378)) in tissue culture flasks. Doxycycline was then added to a final concentration of […] to induce reporter expression at 37° C. overnight.
On Day 2, 125 nL of serially-diluted solution of testing compounds were dispensed into 384-well white solid assay plates via ECHO acoustic liquid handler. Cells were lifted by 0.25% Trypsin (Gibco 25200) then pelleted by centrifugation (Beckman Avanti J-E) at 500×g for 5 min. Cell pellets were resuspended in TC medium at the concentration of 3e5/mL and 25 μL of cell suspension were added into each well of compound-spotted plates. The plates were returned to a 37° C. incubator overnight (18-24 hr).
On Day 3, assay plates were removed from the tissue culture incubator and 25 μL of Nano-Glo lytic detection system (Promega, cat #N3030) was added to each well. Plates were incubated at r.t. for 3 min with shaking, and luminescence was read using an Envision reader (Perkin Elmer).
To assess the IKZF1, IKZF2, and SALL4 degrader potential of exemplified compounds of this disclosure and certain Reference Compounds EC50 and Dmax values were determined for the compounds of Examples 1 to 383 and Reference Compounds A-1, B-1, B-2, B-3, B-4, and C-1 in the HiBiT assays. Asterisks (*) indicate examples for which the data shown represents an average of n≥3.

IKZF2 [4] = biological target: T1, IKZF2; assay: Jurkat IKZF2 degradation (flow cytometry); design: endogenous in cells; conditions: Jurkat cells, overnight incubation; for Dmax: maximum degradation at the highest concentration tested
Description: (§2) Jurkat cell line (ATCC, Clone E6-1), highly expresses IKZF2 and lends it an appropriate system to screen degradation along with a functional readout. Jurkat cells were grown to 80% confluency in TC medium (RPMI containing glutamax, 10% FBS, 1% NEAA, and 1% Pen/Strep Glutamin in tissue culture flasks.
(§3) The cells were spun down at 400 g for 5 mins and counted. 100 K cells per well were added to a 96-well plate. The compounds were introduced starting at 10 μM and dilutions were made 1:10 for each compound. 100 μL of compound was added to each well for a 12-point titration. The cells were incubated at 37° C. with 5% CO2 overnight.
Cells were stained with appropriate surface and intracellular antibodies and acquired by flow cytometry and analysed for degradation. […]
Target sequence in this assay (Q9UKS7 whole entry): as the sequence (Q9UKS7 whole entry) above
Target sequence in this assay (Q96SW2 whole entry): as the sequence (Q96SW2 whole entry) above
Target sequence in this assay (Q16531 whole entry partner): as the sequence (Q16531 whole entry partner) above

[5] = tested on: IL-2 production in Jurkat cells; assay: Jurkat IL-2 functional assay (ELISA of supernatants); conditions: Homo sapiens; for maximal fold induction: Jurkat, top of the curve fit; for EC50: overnight incubation
Description: as §2, §3
The following day, supernatants were collected for a functional readout using ELISA. The supernatants were diluted 1:2 and added to appropriate Human IL-2 plates for IL-2 functional readout.
The top of the curve fit for each compound is reported as the IL-2 ‘fold increase over DMSO control.’

[6] = maximum degradation at the highest concentration tested
[7] = ELISA of supernatants, read-out: IL-2 Production Fold increase over DMSO control

SMILES	Dmax (IKZF2 [1])	DC50 (IKZF2 [1])	Dmax (IKZF2 [2]; [6])	DC50 (IKZF2 [2]; HEK293 HiBiT)	kinact (IKZF2 [3])	Dmax (IKZF1)	DC50 (IKZF1)	DC50 (SALL4)	IKZF2 Dmax (IKZF2 [2]; HEK293 HiBiT, maximum degradation at the highest concentration tested)	speed of IKZF2 degradation compared with Reference Compounds A-1, B-3, B-4, C-1 (IKZF2 [3]; HEK293)	DC50 (IKZF2 [4]; flow cytometry, normalized to DMSO control, read-out: IKZF2 Degradation EC50)	Dmax (IKZF2 [4])	maximal fold induction [5, 7]	maximal fold induction ([5]; read-out: increase in IL-2 production relative to DMSO control)	EC50 ([5]; ELISA of supernatants)
O=C1CCC(N2Cc3c(ccc(C[C@H]4OCCC[C@@H]4NC4CCC(C(F)(F)F)CC4)c3F)C2=O)C(=O)N1 (single isomer, unassigned) [Example 257]	93%	5 nM	99%	3 nM	0.000133 s⁻¹	34%	69 nM	–	–	–	–	–	–	–	–
O=C1CCC(N2Cc3c(ccc(C[C@H]4OCCC[C@@H]4N[C@H]4CC[C@H](F)CC4)c3F)C2=O)C(=O)N1 (single isomer, unassigned) [Example 289]	90%	5 nM	97%	5 nM	0.000131 s⁻¹	31%	632 nM	> 10000 nM	–	–	–	–	–	–	–
CC(N[C@H]1CCCO[C@@H]1Cc1ccc2c(c1F)CN(C1CCC(=O)NC1=O)C2=O)C1CCOCC1 (single isomer, unassigned) [Example 291]	96%	5 nM	94%	10 nM	8.61e-05 s⁻¹	–	> 1000 nM	> 10000 nM	–	–	–	–	–	–	–
CC1CC[C@H](NC2CCC(F)(F)CC2)[C@@H](Cc2ccc3c(c2)CN(C2CCC(=O)NC2=O)C3=O)C1 (single isomer, unassigned) [Example 325]	–	–	–	5 nM	0.000108 s⁻¹	–	> 1000 nM	> 10000 nM	95%	–	–	–	–	–	–
O=C1CC[C@@H](N2Cc3cc(C[C@H]4CCCC[C@@H]4NC4CCC(F)(F)CC4)ccc3C2=O)C(=O)N1 (single isomer, unassigned) [Example 329]	97%	4 nM	98%	2 nM	0.000158 s⁻¹	53%	50 nM	> 10000 nM	–	–	–	–	–	–	–
O=C1CC[C@@H](N2Cc3c(ccc(C[C@H]4OCCC[C@@H]4N[C@H]4CC[C@H](F)CC4)c3F)C2=O)C(=O)N1 (single isomer, unassigned) [Example 373]	–	–	94%	7 nM	0.000111 s⁻¹	–	> 1000 nM	–	–	–	–	–	–	–	–
O=C1CCC(N2Cc3cc(C[C@H]4CCCC[C@@H]4NCc4ccccc4)ccc3C2=O)C(=O)N1 (stereo partly drawn) [Example 2, 3-(5-(((1R,2S)-2-(benzylamino)cyclohexyl)methyl)-1-oxoisoindolin-2-yl)piperidine-2,6-dione]	–	–	88%	18 nM	0.000147 s⁻¹	–	> 10000 nM	–	–	faster degradation of IKZF2	–	–	–	–	–
CCN[C@H]1CCCC[C@@H]1Cc1ccc2c(c1)CN(C1CCC(=O)NC1=O)C2=O (stereo partly drawn) [Example 35, 3-(5-(((1R,2S)-2-(ethylamino)cyclohexyl)methyl)-1-oxoisoindolin-2-yl)piperidine-2,6-dione]	–	–	94%	29 nM	–	31%	261 nM	–	–	–	3.9 nM	83%	1.9	≥ 1.9	141 nM
O=C1CCC(N2Cc3cc(C[C@H]4CCCC[C@@H]4NC4CCCCC4)ccc3C2=O)C(=O)N1 (stereo partly drawn) [Example 53, 3-(5-(((1R,2S)-2-(cyclohexylamino)cyclohexyl)methyl)-1-oxoisoindolin-2-yl)piperidine-2,6-dione]	96%	4 nM	96%	3 nM	0.000147 s⁻¹	–	> 1000 nM	–	–	–	–	–	–	–	–
O=C1CCC(N2Cc3c(ccc(C[C@H]4CCCC[C@@H]4NC4CCCC4)c3F)C2=O)C(=O)N1 (stereo partly drawn) [Example 87, 3-(5-(((1R,2S)-2-(cyclopentylamino)cyclohexyl)methyl)-4-fluoro-1-oxoisoindolin-2-yl)piperidine-2,6-dione]	95%	3 nM	98%	2 nM	0.000139 s⁻¹	39%	62 nM	–	–	–	–	–	–	–	–
O=C1CCC(N2Cc3c(ccc(C[C@H]4CCCC[C@@H]4NC4CCOCC4)c3F)C2=O)C(=O)N1 (stereo partly shown) [Example 116]	89%	1 nM	98%	2 nM	0.00015 s⁻¹	34%	44 nM	–	–	–	–	–	–	–	–
O=C1CCC(N2Cc3c(ccc(C[C@H]4OCCC[C@@H]4NC4CCCCC4)c3F)C2=O)C(=O)N1 (stereo partly shown) [Example 181]	99%	8 nM	96%	6 nM	0.000106 s⁻¹	–	> 1000 nM	–	–	–	–	–	–	–	–
CCN[C@H]1CCCC[C@@H]1Oc1ccc2c(c1)CN(C1CCC(=O)NC1=O)C2=O (stereo partly shown) [Example B-2]	–	–	93%	–	–	–	–	–	–	–	–	83%	1.8	–	18 nM
O=C1CCC(N2Cc3cc(N[C@H]4CCCC[C@@H]4NCc4ccccc4)ccc3C2=O)C(=O)N1 (stereo partly shown) [Example C-1]	–	–	64%	–	8.33e-06 s⁻¹	–	–	–	–	–	–	–	–	–	–
